Data reported in patent US20250129096A1, “ANNULATED 2-AMINO-3-CYANO THIOPHENES AND DERIVATIVES FOR THE TREATMENT OF CANCER” (Boehringer Ingelheim Int'l GmbH Corp., priority 2021, published 2025).
pIC50: −log10 of the molar value. Values after ≈ are worked out from the molar mass of the structure shown. Like-named read-outs stand apart in the source and are kept apart here.

What was measured:
[1] = Metabolic (microsomal) stability assay, HLM; format: in vitro ADME; conditions: human liver microsomes, 1 μM test compound, predicted clearance as percent of liver blood flow
Experimental: The metabolic degradation of the test compound is assayed at 37° C. with pooled liver microsomes (mouse (MLM), rat (RLM) or human (HLM)). The final incubation volume of 48 μL per time point contains TRIS buffer (pH 7.5; 0.1 M), magnesium chloride (6.5 mM), microsomal protein (0.5 mg/mL for mouse/rat, 1 mg/mL for human specimens) and the test compound at a final concentration of 1 μM. Following a short preincubation period at 37° C., the reactions are initiated by addition of 12 μL beta-nicotinamide adenine dinucleotide phosphate, reduced form (NADPH, 10 mM) and terminated by transferring an aliquot into solvent after different time points (0, 5, 15, 30, 60 min). Additionally, the NADPH-independent degradation is monitored in incubations without NADPH, terminated at the last time point by addition of acetonitrile. The quenched incubations are pelleted by centrifugation (4,000 rpm, 15 min). An aliquot of the supernatant is assayed by LC-MS/MS to quantify the concentration of parent compound in the individual samples.
In vitro intrinsic clearance (CLint, in vitro) is calculated from the time course of the disappearance of the test drug during the microsomal incubation. Each plot is fitted to the first-order elimination rate constant as C(t)=C0*exp(−ke*t), where C(t) and C0 are the concentration of unchanged test drug at incubation time t and that at preincubation and ke is the disappearance rate constant of the unchanged drug. Subsequently, CLint, in vitro (μL min^−1·amount protein) values are converted to predicted CLint, in vivo (mL min^−1 kg^−1) from incubation parameters according to the equation CLint, in vivo=CLint, in vitro×(incubation volume (ml)/amount protein (mg))×(amount protein (mg)/g liver tissue)×(liver weight/body wt.). For better across species comparison the predicted clearance is expressed as percent of the liver blood flow [% QH] (mL min^−1 kg^−1) in the individual species. In general, high stability (corresponding to low % QH) of the compounds across species is desired.

KRAS (WT)::SOS1 = target: T1, KRAS (WT)::SOS1 (Homo sapiens, UniProt P01116, C118S); test: KRAS::SOS1 AlphaScreen binding assay, KRAS WT
T1 construct: KRAS (WT) 1-169, N-terminal 6His-tag for purification, cleaved off; 6His-tag (N, cleaved yes); TEV cleavage site
T1 sequence (P01116 1-169 isoform P01116-2 C118S): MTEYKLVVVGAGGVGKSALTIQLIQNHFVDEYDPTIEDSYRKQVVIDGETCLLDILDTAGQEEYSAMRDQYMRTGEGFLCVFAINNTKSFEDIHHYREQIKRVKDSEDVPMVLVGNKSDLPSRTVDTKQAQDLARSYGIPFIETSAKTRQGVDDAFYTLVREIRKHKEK
Experimental: (§1) Low IC50 values in this assay setting are indicative of strong inhibition of protein-protein interaction between SOS1 and KRAS:
(§2) These assays measure the inhibitory effect of compounds on KRAS mutant protein-protein interactions using the Alpha Screen technology by Perkin Elmer.
(§3) For the chosen highest assay concentration of 100 μM, 150 nL of compound solution are transferred from a 10 mM DMSO compound stock solution. A series of eleven fivefold dilutions per compound are transferred to the assay plate, compound dilutions are tested in duplicates. DMSO are added as backfill to a total volume of 150 nL.
(§4) The assays run on a fully automated robotic system in a darkened room below 100 Lux. To 150 nl of compound dilution 10 μl of a mix including KRAS mutant protein, SOS1 (final assay concentrations see above) and GDP nucleotide (Sigma G7127; final assay concentration 10 μM) in assay buffer (1×PBS, 0.1% BSA, 0.05% Tween 20) are added into columns 1-24. After 30 minutes incubation time 5 μl of Alpha Screen bead mix in assay buffer are added into columns 1-23.
(§5) Plates are kept at room temperature in a darkened incubator. After an additional 60 minutes incubation time the signal is measured in a PerkinElmer Envision HTS Multilabel Reader using the AlphaScreen specs from PerkinElmer.
(§6) IC50 values are calculated and analyzed with Boehringer Ingelheim's MEGALAB IC50 application using a 4 parametric logistic model.

[2] = Solubility measurement (DMSO solution precipitation method); format: physicochemical; conditions: aqueous buffer, kinetic from dmso stock, ambient temperature
Experimental: The DMSO solution is diluted with an aqueous medium (McIlvaine buffer with pH=4.5 or 6.8) to a final concentration of 250 μM. After 24 h of shaking at ambient temperature a potentially formed precipitate is removed by filtration. The concentration of the test compound in the filtrate is determined by LC-UV methods by calibrating the signal to the signal of a reference solution with complete dissolution of the test compound in acetonitrile/water (1:1) with known concentration.

KRAS G12D Ba/F3 cells = KRAS G12D Ba/F3 cells (Homo sapiens, UniProt P01116, G12D, cells depend on it); test: Ba/F3 proliferation assay, KRAS G12D; format: cell-based; conditions: 72 h, AlamarBlue; read-out: KRAS G12D Ba/F3 IC50
KRAS G12D Ba/F3 cells, sequence (P01116 whole entry G12D, canonical isoform): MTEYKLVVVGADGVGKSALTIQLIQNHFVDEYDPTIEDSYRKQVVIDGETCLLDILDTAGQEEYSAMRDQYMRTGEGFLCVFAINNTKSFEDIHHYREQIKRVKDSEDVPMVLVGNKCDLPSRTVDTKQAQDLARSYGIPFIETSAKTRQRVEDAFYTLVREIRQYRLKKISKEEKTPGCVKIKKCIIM
Experimental: (§7) To generate KRASG12-dependent Ba/F3 models, Ba/F3 cells are transduced with retroviruses containing vectors that harbor KRASG12 isoforms. Platinum-E cells (Cell Biolabs) are used for retrovirus packaging. Retrovirus is added to Ba/F3 cells. To ensure infection, 4 μg/mL polybrene is added and cells are spinfected. […] Cells with an infection efficiency of 10% to 20% are further cultivated and puromycin selection with 1 μg/mL is initiated. As a control, parental Ba/F3 cells are used to show selection status. Selection is considered successful when parental Ba/F3 cells cultures died. To evaluate the transforming potential of KRASG12 mutations, the growth medium is no longer supplemented with IL-3. Ba/F3 cells harboring the empty vector are used as a control. Approximately ten days before conducting the experiments, puromycin is left out. […] All treatments are performed in technical duplicates. […] AlamarBlue™(ThermoFisher), a viability stain, is added and fluorescence measured in the PerkinElmer Envision HTS Multilabel Reader. The raw data are imported into and analyzed with the Boehringer Ingelheim proprietary software MegaLab (curve fitting based on the program PRISM, GraphPad Inc.).

KRAS G12C Ba/F3 cells = KRAS G12C Ba/F3 cells (Homo sapiens, UniProt P01116, G12C, cells depend on it); test: Ba/F3 proliferation assay, KRAS G12C; format: cell-based; conditions: 72 h, AlamarBlue; read-out: KRAS G12C Ba/F3 IC50
KRAS G12C Ba/F3 cells, sequence (P01116 whole entry G12C): as the sequence (P01116 whole entry G12D, canonical isoform) above, with D12C counted along it
Experimental: as §7

KRAS (G12D)::SOS1 = target: T2, KRAS (G12D)::SOS1 (Homo sapiens, UniProt P01116, G12D); test: KRAS::SOS1 AlphaScreen binding assay, KRAS G12D
T2 construct: KRAS (G12D) 1-169, N-terminal 6His-tag, C-terminal avi-tag; 6His-tag (N); purchased Xtal BioStructures, Inc. (KRAS G12D); Viva Biotech Ltd (SOS1)
T2 sequence (P01116 1-169 isoform P01116-2 G12D): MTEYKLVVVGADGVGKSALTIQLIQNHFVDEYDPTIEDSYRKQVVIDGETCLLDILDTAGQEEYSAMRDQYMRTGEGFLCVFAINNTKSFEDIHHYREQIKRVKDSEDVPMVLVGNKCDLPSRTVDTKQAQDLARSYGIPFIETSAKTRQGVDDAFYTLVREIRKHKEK
Experimental: as §1, §2, §3, §4, §5, §6

KRAS (G12C)::SOS1 = target: T3, KRAS (G12C)::SOS1 (Homo sapiens, UniProt P01116, C118S/C51S/C80L/G12C); test: KRAS::SOS1 AlphaScreen binding assay, KRAS G12C
T3 construct: KRAS (G12C) 1-169, N-terminal 6His-tag for purification, cleaved off; 6His-tag (N, cleaved yes)
T3 sequence (P01116 1-169 isoform P01116-2 G12C/C51S/C80L/C118S): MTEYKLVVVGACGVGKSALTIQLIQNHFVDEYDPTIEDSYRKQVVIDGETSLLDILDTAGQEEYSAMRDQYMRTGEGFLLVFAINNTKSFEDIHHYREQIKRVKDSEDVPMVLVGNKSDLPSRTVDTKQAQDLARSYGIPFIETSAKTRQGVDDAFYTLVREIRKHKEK
Experimental: as §1, §2, §3, §4, §5, §6

KRAS G12V Ba/F3 cells = KRAS G12V Ba/F3 cells (Homo sapiens, UniProt P01116, G12V, cells depend on it); test: Ba/F3 proliferation assay, KRAS G12V; format: cell-based; conditions: 72 h, AlamarBlue; read-out: KRAS G12V Ba/F3 IC50
KRAS G12V Ba/F3 cells, sequence (P01116 whole entry G12V): as the sequence (P01116 whole entry G12D, canonical isoform) above, with D12V counted along it
Experimental: as §7

[3] = McIlvaine buffer pH 4.5, 24 h, read-out: solubility pH 4.5
[4] = McIlvaine buffer pH 6.8, 24 h, read-out: solubility pH 6.8

Compound | HLM QH [1] | pIC50 (KRAS (WT)::SOS1) | solubility at 24 h [2, 3] | solubility at 24 h [2, 4] | GI50 (KRAS G12D Ba/F3 cells) | GI50 (KRAS G12C Ba/F3 cells) | pIC50 (KRAS (G12D)::SOS1) | pIC50 (KRAS (G12C)::SOS1) | GI50 (KRAS G12V Ba/F3 cells)
C[C@H]1CN(C2CCOCC2)CCCN1c1nccc(-c2noc3c2CCC[C@@]32CCCc3sc(N)c(C#N)c32)n1 (single isomer, unassigned) [IIg-1] | >88% | 7.60 | 107 µg/mL (≈ 191 µM) | < 1 µg/mL | 23 nM | 10 nM | 8.40 | 8.00 | 
C[C@H](Oc1nccc(-c2n[nH]c3c2CCCC32CCCc3sc(N)c(C#N)c32)n1)[C@@H]1CCCN1C (stereo partly drawn) [IIIa-1] |  |  |  |  | 697 nM | 930 nM | 7.80 | 7.55 | 
C[C@H]1CNCCCN1c1nccc(-c2nn(C)c3c2CCC32CCCc3sc(N)c(C#N)c32)n1 (stereo partly drawn) [IIIb-1] | 31% |  |  |  | 15100 nM | 11500 nM | 5.75 | 5.80 | 10400 nM
C[C@H](Oc1nccc(-c2nnn3c2CCCC32CCCc3sc(N)c(C#N)c32)n1)[C@@H]1CCCN1C (stereo partly drawn) [IVa-1] | 80% |  |  |  | 381 nM | 521 nM | 7.74 | 7.25 | 
C[C@H]1CN(C2CCOC2)CCCN1c1nccc(-c2onc3c2CCC[C@@]32CCCc3sc(N)c(C#N)c32)n1 (stereo partly drawn) [Ig-2] |  |  | > 110 µg/mL | < 1 µg/mL | 174 nM | 123 nM | 8.40 | 7.92 | 

Continued, values first:

HLM QH [1] | pIC50 (KRAS (WT)::SOS1) | solubility at 24 h [2, 3] | solubility at 24 h [2, 4] | GI50 (KRAS G12D Ba/F3 cells) | GI50 (KRAS G12C Ba/F3 cells) | pIC50 (KRAS (G12D)::SOS1) | pIC50 (KRAS (G12C)::SOS1) | GI50 (KRAS G12V Ba/F3 cells) | Compound
<24% |  |  |  |  | 317 nM | 8.10 | 7.72 |  | C[C@H]1CNCCCN1c1cccc(-c2onc3c2CCC[C@@]32CCCc3sc(N)c(C#N)c32)n1 [Ib-3]
>88% |  | 23 µg/mL (≈ 43.4 µM) | 10 µg/mL (≈ 18.9 µM) | 48 nM | 89 nM | 8.52 | 8.10 |  | C[C@H]1CN(CC2CC2)CCCN1c1nccc(-c2onc3c2CCC[C@@]32CCCc3sc(N)c(C#N)c32)n1 [Ig-1]
>88% | 7.68 | > 153 µg/mL | 76 µg/mL (≈ 142 µM) | 88 nM | 108 nM | 8.52 | 8.22 |  | C[C@@H](O)CN1CCCN(c2nccc(-c3onc4c3CCC[C@@]43CCCc4sc(N)c(C#N)c43)n2)[C@@H](C)C1 [Ig-4]
